Activity calls are given as the source filed them.
Columns and labels:
[1] = molecular target: T1, Hexokinase-1 (Homo sapiens, UniProt P19367); assay: SAR analysis of small molecule inhibitors of hexokinase domain containing I (HKDC1) in the hexokinase 1 selectivity assay. [Related pubchem assays (depositor defined):AID493160, AID493190]; type: functional
T1 sequence (P19367 whole entry): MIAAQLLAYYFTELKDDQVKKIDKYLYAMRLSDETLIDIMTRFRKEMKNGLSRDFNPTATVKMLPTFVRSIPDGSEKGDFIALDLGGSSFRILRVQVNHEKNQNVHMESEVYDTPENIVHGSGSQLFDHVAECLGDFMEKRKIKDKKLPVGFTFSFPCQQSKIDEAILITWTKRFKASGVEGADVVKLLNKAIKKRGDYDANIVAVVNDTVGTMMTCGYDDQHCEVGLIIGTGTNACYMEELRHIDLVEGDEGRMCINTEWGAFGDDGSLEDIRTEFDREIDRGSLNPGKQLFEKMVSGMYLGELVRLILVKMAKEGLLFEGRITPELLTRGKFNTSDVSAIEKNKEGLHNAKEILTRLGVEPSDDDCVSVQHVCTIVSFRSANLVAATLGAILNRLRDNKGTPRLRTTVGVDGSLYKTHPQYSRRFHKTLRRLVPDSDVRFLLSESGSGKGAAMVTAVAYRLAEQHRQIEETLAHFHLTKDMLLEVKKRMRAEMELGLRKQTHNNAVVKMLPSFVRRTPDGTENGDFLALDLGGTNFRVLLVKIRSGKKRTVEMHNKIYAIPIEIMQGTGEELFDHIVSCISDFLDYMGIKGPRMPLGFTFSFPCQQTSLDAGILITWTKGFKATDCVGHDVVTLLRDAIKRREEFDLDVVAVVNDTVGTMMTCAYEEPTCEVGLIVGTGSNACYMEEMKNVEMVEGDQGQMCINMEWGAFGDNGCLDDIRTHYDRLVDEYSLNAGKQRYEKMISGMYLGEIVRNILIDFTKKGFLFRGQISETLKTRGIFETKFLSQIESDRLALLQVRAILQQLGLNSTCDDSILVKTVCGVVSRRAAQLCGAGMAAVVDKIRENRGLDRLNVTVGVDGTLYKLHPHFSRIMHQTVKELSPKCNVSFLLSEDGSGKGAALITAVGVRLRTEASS

[2] = molecular target: T2, Hexokinase HKDC1 (Homo sapiens, UniProt Q2TB90); assay: SAR analysis of small molecule inhibitors of hexokinase domain containing I (HKDC1). [Related pubchem assays (depositor defined):AID493160, AID493190]; type: functional
T2 sequence (Q2TB90 whole entry): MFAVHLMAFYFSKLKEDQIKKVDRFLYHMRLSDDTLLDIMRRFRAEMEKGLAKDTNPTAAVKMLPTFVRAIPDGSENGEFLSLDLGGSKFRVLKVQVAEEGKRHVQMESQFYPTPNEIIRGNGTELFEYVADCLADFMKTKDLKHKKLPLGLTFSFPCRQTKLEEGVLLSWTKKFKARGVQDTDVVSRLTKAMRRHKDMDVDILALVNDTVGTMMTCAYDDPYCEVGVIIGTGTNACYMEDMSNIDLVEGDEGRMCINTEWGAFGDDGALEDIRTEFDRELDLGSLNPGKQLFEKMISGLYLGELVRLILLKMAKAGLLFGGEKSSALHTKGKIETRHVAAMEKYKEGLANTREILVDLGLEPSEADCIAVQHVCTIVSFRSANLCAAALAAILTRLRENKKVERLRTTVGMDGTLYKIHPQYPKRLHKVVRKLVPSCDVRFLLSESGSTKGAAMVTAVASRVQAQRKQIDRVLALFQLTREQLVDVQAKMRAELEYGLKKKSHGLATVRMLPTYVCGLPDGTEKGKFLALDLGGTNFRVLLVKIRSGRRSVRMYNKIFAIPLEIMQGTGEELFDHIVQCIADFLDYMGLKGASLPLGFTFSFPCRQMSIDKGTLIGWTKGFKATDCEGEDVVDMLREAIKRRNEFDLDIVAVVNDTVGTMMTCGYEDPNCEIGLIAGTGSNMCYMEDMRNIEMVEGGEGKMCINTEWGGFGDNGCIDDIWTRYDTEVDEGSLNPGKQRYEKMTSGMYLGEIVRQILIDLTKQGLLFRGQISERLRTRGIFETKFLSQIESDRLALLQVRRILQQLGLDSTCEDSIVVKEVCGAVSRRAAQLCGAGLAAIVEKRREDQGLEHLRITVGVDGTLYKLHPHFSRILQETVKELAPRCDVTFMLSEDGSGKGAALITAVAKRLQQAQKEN

[3] = molecular target: T3, Insulin-degrading enzyme (Homo sapiens, UniProt P14735); assay: activators of recombinant IDE enzyme, dose response, counter-screen for IDE activator project, biochemical, fluorescence polarization (AID 588681)
T3 sequence (P14735 whole entry): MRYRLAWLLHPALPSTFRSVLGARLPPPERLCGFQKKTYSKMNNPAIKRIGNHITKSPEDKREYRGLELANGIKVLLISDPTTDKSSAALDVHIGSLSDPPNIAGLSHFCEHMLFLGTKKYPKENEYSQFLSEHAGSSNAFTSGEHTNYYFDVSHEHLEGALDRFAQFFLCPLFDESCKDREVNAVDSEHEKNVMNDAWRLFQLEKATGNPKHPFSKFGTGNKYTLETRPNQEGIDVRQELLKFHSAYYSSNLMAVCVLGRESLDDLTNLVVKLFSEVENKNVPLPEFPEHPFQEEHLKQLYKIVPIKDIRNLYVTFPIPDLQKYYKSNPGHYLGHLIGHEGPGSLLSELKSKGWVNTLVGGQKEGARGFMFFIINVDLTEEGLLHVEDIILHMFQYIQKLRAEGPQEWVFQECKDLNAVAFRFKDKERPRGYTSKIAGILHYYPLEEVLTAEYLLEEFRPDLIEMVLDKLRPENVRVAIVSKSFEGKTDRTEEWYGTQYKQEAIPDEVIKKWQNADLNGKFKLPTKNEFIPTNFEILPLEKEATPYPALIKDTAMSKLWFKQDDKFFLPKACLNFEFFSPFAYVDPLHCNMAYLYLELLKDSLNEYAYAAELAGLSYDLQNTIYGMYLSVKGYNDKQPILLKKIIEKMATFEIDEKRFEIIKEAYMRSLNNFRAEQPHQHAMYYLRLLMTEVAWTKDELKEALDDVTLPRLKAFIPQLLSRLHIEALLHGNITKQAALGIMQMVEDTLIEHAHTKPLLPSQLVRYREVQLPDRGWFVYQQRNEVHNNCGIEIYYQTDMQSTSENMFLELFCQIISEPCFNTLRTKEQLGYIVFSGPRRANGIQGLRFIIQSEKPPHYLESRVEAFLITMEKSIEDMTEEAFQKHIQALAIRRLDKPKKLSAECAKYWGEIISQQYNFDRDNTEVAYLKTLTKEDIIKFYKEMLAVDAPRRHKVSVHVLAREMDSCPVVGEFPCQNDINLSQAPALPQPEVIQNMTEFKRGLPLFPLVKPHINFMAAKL

[4] = Luminescence Cell-Based Dose Confirmation HTS to Identify Activators of 5'UTR Stem-Loop Driven Alpha-Synuclein mRNA Translation in H4 Neuroglioblastoma Cells. [Related pubchem assays: 1829 (Project Summary), 1814 (Primary HTS)]; type: functional
[5] = molecular target: T3, Insulin-degrading enzyme; assay: activators of endogenous IDE in HEK cells, dose response, cell-based, fluorescence polarization (AID 588439); type: functional
[6] = test system: H4; assay: Luminescence Cell-Based Dose Response HTS to Identify Activators of 5'UTR Stem-Loop Driven Prion Protein mRNA Translation in H4 Neuroglioblastoma Cells. [Related pubchem assays: 1829 (Project Summary), 1814 (Primary HTS)]; type: functional; conditions: Homo sapiens
[7] = test system: HEK293; assay: HEK cell cytotoxicity by LDH release, dose response, cytotoxicity control for IDE activator project, fluorescence, HEK cells (AID 588440); type: functional, cell-based; conditions: Homo sapiens;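 note: cytotoxicity by LDH release measuring loss of membrane integrity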
[8] = test system: HEK293; assay: optical interference in Abeta FP readout, dose response, artefact control for IDE activator project, biochemical, fluorescence polarization (AID 588442); type: functional, cell-based; conditions: Homo sapiens
[9] = Luminescence Cell-Based Dose Response HTS to Identify Activators of Luciferase Translation or Activity in H4 […] Cells. [Related pubchem assays: 1829 (Project Summary), 1814 (Primary HTS)]; type: functional
[10] = THP-1 cell cytotoxicity, dose response, cytotoxicity control for Vif-APOBEC3G degradation inhibitor project, THP-1 cells (AID 1117359); type: functional; conditions: Human immunodeficiency virus 1, THP-1
[11] = test system: CHO; assay: cytotoxicity in TLR9-MyD88 CHO cells, dose response, cytotoxicity control for TLR9-MyD88 binding inhibitor project, cell-based, luminescence (AID 588339); type: functional, hamster; conditions: Cricetulus griseus;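 note: CHO cells stably coexpressing TLR9 and MyD88 fusions from primary screen; compound exposure lasted 48 hours before viability readout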
[12] = molecular target: Beta Lactamase (Pseudomonas aeruginosa, UniProt Q932Y6); assay: beta-lactamase reporter inhibitor potency, dose response, artefact control for TLR9-MyD88 binding inhibitor project, BLA reporter cells, FRET fluorescence (AID 588341); type: cell-based;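 note: cell based assay in CHO-K1 cells stably expressing beta-lactamase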
Sequence of Beta Lactamase (Q932Y6 whole entry): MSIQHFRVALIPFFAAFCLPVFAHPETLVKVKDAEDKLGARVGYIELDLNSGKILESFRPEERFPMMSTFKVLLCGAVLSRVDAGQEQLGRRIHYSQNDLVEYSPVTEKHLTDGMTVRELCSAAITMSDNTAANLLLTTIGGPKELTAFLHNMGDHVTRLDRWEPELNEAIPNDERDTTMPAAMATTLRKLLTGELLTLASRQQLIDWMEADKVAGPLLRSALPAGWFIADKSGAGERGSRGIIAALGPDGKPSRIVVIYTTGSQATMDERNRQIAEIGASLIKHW

## Cc1cc(C)c(S(=O)(=O)Nc2cc(SCCC(=O)O)c(O)c3ccccc23)cc1C
[1]
  IC50: > 80 µM (inactive)
[2]
  IC50: 9.9 µM (active)

## Cc1ccc(NC(=O)C2C3C=CC4(CN(Cc5cccnc5)C(=O)C24)O3)cc1 (stereo unspecified)
[3]
  EC50: > 54.7 µM (inactive)
[4]
  EC50: > 120 µM (not active)
[5]
  EC50: > 54.7 µM (inactive)
[6]
  EC50: 14 µM (active)
[7]
  IC50: > 89.2 µM (inactive)
[8]
  EC50: > 55.9 µM (inactive)
[9]
  EC50: 11.9 µM (active)

## CC[C@H](C)/C=C(C)/C=C/C1=CC2=CC(=O)[C@]3(C)OC(=O)[C@@H](C(C)=O)[C@@H]3C2=CO1
[10]
  CC50: > 40 µM (active)
[11]
  IC50: > 49.7 µM (inactive)
[12]
  IC50: 8.86 µM (active)

## NC(=O)Cn1cc(/C=N\NS(=O)(=O)c2ccc(Cl)cc2)c2ccccc21
[3]
  EC50: > 54.7 µM (inactive)
[5]
  EC50: > 54.7 µM (inactive)
[7]
  IC50: > 89.1 µM (inactive)
[8]
  EC50: > 55.9 µM (inactive)
